Experimental data from patent US5567692A, “9-[(substituted glycyl) amido)]-6-demethyl-6-deoxytetracyclines” (priority 1995, dated 1996).
Counter-ions that a name gives are not always drawn. Like-named read-outs stand apart in the source and are kept apart here.

Assays:
[1] = tested on: E. coli UBMS 88-1 Tet B; assay: microbe, parasite or virus in culture; assay type: cell-based; conditions: Escherichia coli, UBMS881TETB, 18 h
[2] = tested on: E. coli J3272 Tet sens; assay: MIC, agar dilution; assay type: cell-based; conditions: Escherichia coli, J3272TETSENS, 18 h
[3] = tested on: E. coli PRP1 Tet A; assay: microbe, parasite or virus in culture; assay type: cell-based; conditions: Escherichia coli, PRP1TETA, 18 h
[4] = tested on: E. coli MC 4100 TNIOC Tet B; assay: microbe, parasite or virus in culture; assay type: cell-based; conditions: Escherichia coli, 18 h
[5] = tested on: E. coli J3272 Tet C; assay: microbe, parasite or virus in culture; assay type: cell-based; conditions: Escherichia coli, J3272TETC, 18 h
[6] = tested on: E. coli UBMS 89-1 Tet M; assay: microbe, parasite or virus in culture; assay type: cell-based; conditions: Escherichia coli, UBMS891TETM, 18 h
[7] = tested on: E. coli UBMS 89-2 Tet sens.; assay: MIC, agar dilution; assay type: cell-based; conditions: Escherichia coli, 18 h
[8] = tested on: E. coli J2175; assay: MIC, agar dilution; assay type: cell-based; conditions: Escherichia coli, 18 h, read-out: MIC
[9] = tested on: E. coli BAJ9003 IMP MUT; assay: microbe, parasite or virus in culture; assay type: cell-based; conditions: Escherichia coli, BAJ9003IMPMUT, 18 h
[10] = tested on: E. coli UBMS 90-4 Tet M; assay: microbe, parasite or virus in culture; assay type: cell-based; conditions: Escherichia coli, UBMS904TETM, 18 h
[11] = tested on: E. coli UBMS 90-5; assay: microbe, parasite or virus in culture; assay type: cell-based; conditions: Escherichia coli, UBMS905, 18 h, E. coli UBMS 90-5; read-out: MIC
[12] = tested on: E. coli #311 (MP); assay: MIC, agar dilution; assay type: cell-based; conditions: Escherichia coli, 18 h
[13] = tested on: E. coli ATCC 25922; assay: MIC, agar dilution; assay type: cell-based; conditions: Escherichia coli, ATCC25922, 18 h
[14] = tested on: E. coli J3272 Tet D; assay: microbe, parasite or virus in culture; assay type: cell-based; conditions: Escherichia coli, J3272TETD, 18 h
[15] = tested on: S. marcescens FPOR 8733; assay: MIC, agar dilution; assay type: cell-based; conditions: Serratia marcescens, FPOR8733, 18 h
[16] = tested on: X. maltophilia NEMC 87210; assay: MIC, agar dilution; assay type: cell-based; conditions: Stenotrophomonas maltophilia, NEMC87210, 18 h
[17] = tested on: Ps. aeruginosa ATCC 27853; assay: MIC, agar dilution; assay type: cell-based; conditions: Pseudomonas aeruginosa, ATCC27853, 18 h, Ps. aeruginosa ATCC 27853; read-out: MIC
[18] = tested on: S. aureus NEMC 8769; assay: MIC, agar dilution; assay type: cell-based; conditions: Staphylococcus aureus, NEMC8769, 18 h
[19] = tested on: S. aureus UBMS 88-4; assay: MIC, agar dilution; assay type: cell-based; conditions: Staphylococcus aureus, UBMS884, 18 h, S. aureus UBMS 88-4
[20] = tested on: S. aureus UBMS 88-5 Tet M; assay: microbe, parasite or virus in culture; assay type: cell-based; conditions: Staphylococcus aureus, UBMS885TETM, 18 h
[21] = tested on: S. aureus UBMS 88-7 Tet K; assay: microbe, parasite or virus in culture; assay type: cell-based; conditions: Staphylococcus aureus, UBMS887TETK, 18 h
[22] = tested on: S. aureus UBMS 90-1 Tet M; assay: microbe, parasite or virus in culture; assay type: cell-based; conditions: Staphylococcus aureus, UBMS901TETM, 18 h
[23] = tested on: S. aureus UBMS 90-3; assay: MIC, agar dilution; assay type: cell-based; conditions: Staphylococcus aureus, UBMS903, 18 h
[24] = tested on: S. aureus UBMS 90-2 Tet M; assay: microbe, parasite or virus in culture; assay type: cell-based; conditions: Staphylococcus aureus, UBMS902TETM, 18 h
[25] = tested on: S. aureus IVES 2943; assay: MIC, agar dilution; assay type: cell-based; conditions: Staphylococcus aureus, IVES2943, 18 h, S. aureus IVES 2943; read-out: MIC
[26] = tested on: S. aureus ROSE (MP); assay: MIC, agar dilution; assay type: cell-based; conditions: Staphylococcus aureus, 18 h
[27] = tested on: S. aureus SMITH (MP); assay: MIC, agar dilution; assay type: cell-based; conditions: Staphylococcus aureus, 18 h
[28] = tested on: S. aureus IVES 1983; assay: MIC, agar dilution; assay type: cell-based; conditions: Staphylococcus aureus, IVES1983, 18 h
[29] = tested on: S. aureus ATCC 29213; assay: MIC, agar dilution; assay type: cell-based; conditions: Staphylococcus aureus, ATCC29213, 18 h
[30] = tested on: S. hemolyticus AVHAH 88-3; assay: MIC, agar dilution; assay type: cell-based; conditions: Streptococcus pyogenes, AVHAH883, 18 h
[31] = tested on: Enterococcus 12201; assay: MIC, agar dilution; assay type: cell-based; conditions: Enterococcus, 12201, 18 h
[32] = tested on: E. faecalis ATCC 29212; assay: MIC, agar dilution; assay type: cell-based; conditions: Enterococcus faecalis, ATCC29212, 18 h
[33] = tested on: Staphylococcus aureus strain Smith (tetracycline sensitive); assay: Acute lethal infection in mice, S. aureus Smith; assay type: in vivo; conditions: for ED50: Staphylococcus aureus, 168 h, mice, S. aureus Smith (Sens), 7 day survival, read-out: ED50

| Structure (SMILES) | MIC [1] | MIC [2] | MIC [3] | MIC [4] | MIC [5] | MIC [6] | MIC [7] | MIC [8] | MIC [9] | MIC [10] | MIC [11] | MIC [12] | MIC [13] | MIC [14] | MIC [15] | MIC [17] | MIC [21] | MIC [22] | MIC [24] | MIC [25] | further results |
| --- | --- | --- | --- | --- | --- | --- | --- | --- | --- | --- | --- | --- | --- | --- | --- | --- | --- | --- | --- | --- | --- |
| CCCCNCC(=O)Nc1ccc2c(c1O)C(=O)C1=C(O)[C@]3(O)C(=O)C(C(N)=O)=C(O)[C@@H](N(C)C)C3CC1C2 (stereo partly drawn) [H, [4S-(4alpha,12aalpha)]-9-[[(Butylamino)acetyl]amino]-4-(dimethylamino)-1,4,4a,5,5a,6,11,12a-octahydro-3,10,12,12a-tetrahydroxy-1,11-dioxo-2-naphthacenecarboxamide dihydrochloride] | 0.25 µg/mL | 0.12 µg/mL | 0.25 µg/mL | 0.25 µg/mL | 0.12 µg/mL | 0.12 µg/mL | 0.12 µg/mL | 0.25 µg/mL | 0.06 µg/mL | 0.12 µg/mL | 0.12 µg/mL | 0.12 µg/mL | 0.12 µg/mL | 0.06 µg/mL | 2 µg/mL | 8 µg/mL | 1 µg/mL | 0.12 µg/mL | 0.12 µg/mL | 1 µg/mL | MIC [16]: 1 µg/mL; MIC [18]: 0.03 µg/mL; MIC [19]: 0.06 µg/mL; MIC ([20]; S. aureus UBMS 88-5 Tet M): 0.06 µg/mL; MIC [23]: 0.03 µg/mL; MIC ([26]; read-out: MIC): 4 µg/mL; MIC [27]: 0.12 µg/mL; MIC [28]: 2 µg/mL; MIC [29]: 0.06 µg/mL; MIC [30]: 0.5 µg/mL; MIC [31]: 0.12 µg/mL; MIC ([32]; E. faecalis ATCC 29212, read-out: MIC): 0.12 µg/mL; ED50 ([33]; iv, Intraveneous): 0.5 to 1 mg/kg; ED50 ([33]; po, Oral): > 16 mg/kg; in vivo activity (in words) ([33]; tested intravenously against the minocycline sensitive organism S. aureus Smith): very good in vivo activity |
| CC(Br)C(=O)Nc1ccc2c(c1O)C(=O)C1=C(O)[C@]3(O)C(=O)C(C(N)=O)=C(O)[C@@H](N(C)C)C3CC1C2 (stereo partly drawn) [S, [4S-(4alpha,12aalpha)]-9-[(2-Bromo-1-oxopropyl)amino]-4-(dimethylamino)-1,4,4a,5,5a,6,11,12a-octahydro-3,10,12,12a-tetrahydroxy-1,11-dioxo-2-naphthacenecarboxamide dihydrochloride] | > 32 µg/mL | 4 µg/mL | > 32 µg/mL | > 32 µg/mL | > 32 µg/mL | > 32 µg/mL | 16 µg/mL | 16 µg/mL | 1 µg/mL | > 32 µg/mL | 8 µg/mL | 8 µg/mL | 8 µg/mL | > 32 µg/mL | > 32 µg/mL | > 32 µg/mL | 16 µg/mL | 32 µg/mL | 16 µg/mL | 32 µg/mL | MIC ([16]; X. maltophilia NEMC 87210, read-out: MIC): 16 µg/mL; MIC ([18]; read-out: MIC): 0.25 µg/mL; MIC ([19]; read-out: MIC): 2 µg/mL; MIC [20]: 32 µg/mL; MIC ([23]; S. aureus UBMS 90-3, read-out: MIC): 2 µg/mL; MIC [26]: > 32 µg/mL; MIC [27]: 1 µg/mL; MIC ([28]; S. aureus IVES 1983, read-out: MIC): 32 µg/mL; MIC ([29]; S. aureus ATCC 29213, read-out: MIC): 2 µg/mL; MIC [30]: 8 µg/mL; MIC [31]: 32 µg/mL; MIC [32]: 16 µg/mL |
